Source: patent US8273773B2 (priority 2008, dated 2012)

target: T1, HCV polymerase (NS5B570n-Con1) (Hepatitis C virus genotype 1b, UniProt Q9WMX2); experiment: biochemical; parameters: species or system HCV Con1 strain; conditions: IC50 HCV NS5B RNA Polymerase Assay (values with asterisk), values with asterisk: cIRES RNA template, 3 nM NS5B570n-Con1
T1 construct: contains a 21 amino acid deletion at the C-terminus relative to the full-length HCV polymerase; 6-histidine (N); made in house; host or cells: E. coli strain BL21(DE) pLysS (pET17b)
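Note: recombinant His-tagged enzyme from E. coli, radiolabeled nucleotide incorporation into acid-insoluble RNA read by scintillation after filtration, no-enzyme background subtracted, activity relative to positive control.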

Compound	IC50 [nM]
COc1c(/C=C/c2ccc(NS(C)(=O)=O)cc2CN2CCOCC2)cc(-c2cc(F)c[nH]c2=O)cc1C(C)(C)C [I-222, N-(4-{(E)-2-[3-tert-Butyl-5-(5-fluoro-2-oxo-1,2-dihydro-pyridin-3-yl)-2-methoxy-phenyl]-vinyl}-3-morpholin-4-ylmethyl-phenyl)-methanesulfonamide]	1
COc1c(/C=C/c2ccc(NS(C)(=O)=O)cc2C(=O)N(C)CCN(C)C)cc(-c2cc(F)c[nH]c2=O)cc1C(C)(C)C [I-207]	4
COCCc1cc(NS(C)(=O)=O)ccc1/C=C/c1cc(-c2cc(F)c[nH]c2=O)cc(C(C)(C)C)c1OC [I-227, N-[4-{(E)-2-[3-tert-Butyl-5-(5-fluoro-2-oxo-1,2-dihydro-pyridin-3-yl)-2-methoxy-phenyl]-vinyl}-3-(2-methoxy-ethyl)-phenyl]-methanesulfonamide]	1
COc1c(/C=C/c2ccc(NS(C)(=O)=O)cc2)cc(-c2ccc[nH]c2=O)cc1C(C)(C)OC [I-289, N-(4-{(E)-2-[2-Methoxy-3-(1-methoxy-1-methyl-ethyl)-5-(2-oxo-1,2-dihydro-pyridin-3-yl)-phenyl]-vinyl}-phenyl)-methanesulfonamide]	2
COc1c(/C=C/c2ccc(NS(C)(=O)=O)cc2)cc(-c2ccc(C)[nH]c2=O)cc1C1(Cl)CC1 [I-265]	5
CCOc1c(/C=C/c2ccc(NS(C)(=O)=O)cc2)cc(-c2ccc[nH]c2=O)cc1C(C)(C)C [I-249]	11
CS(=O)(=O)Nc1ccc(/C=C/c2cc(-c3ccc[nH]c3=O)cc(C3(C(F)F)CC3)c2)cc1 [I-275, N-(4-{(E)-2-[3-(1-Difluoromethyl-cyclopropyl)-5-(2-oxo-1,2-dihydro-pyridin-3-yl)-phenyl]-vinyl}-phenyl)-methanesulfonamide]	1
COc1c(/C=C/c2ccc(NS(C)(=O)=O)cc2CN2CCOC2=O)cc(-c2cc(F)c[nH]c2=O)cc1C(C)(C)C [I-220, N-[4-{(E)-2-[3-tert-Butyl-5-(5-fluoro-2-oxo-1,2-dihydro-pyridin-3-yl)-2-methoxy-phenyl]-vinyl}-3-(2-oxo-oxazolidin-3-ylmethyl)-phenyl]-methanesulfonamide]	5
COc1c(/C=C/c2ccc(NS(C)(=O)=O)cc2)cc(-c2cc(Cl)c[nH]c2=O)cc1C1(Cl)CC1 [I-264]	5
COc1c(/C=C/c2ccccc2F)cc(-c2ccc[nH]c2=O)cc1C(C)(C)C [I-237, 3-{3-tert-Butyl-5-[(E)-2-(2-fluoro-phenyl)-vinyl]-4-methoxy-phenyl}-1H-pyridin-2-one]	13
COc1ccc(-c2cc(/C=C/c3ccc(NS(C)(=O)=O)cc3CO)c(OC)c(C(C)(C)C)c2)c(=O)[nH]1 [I-210, N-(4-{(E)-2-[3-tert-Butyl-2-methoxy-5-(6-methoxy-2-oxo-1,2-dihydro-pyridin-3-yl)-phenyl]-vinyl}-3-hydroxymethyl-phenyl)-methanesulfonamide]	1
COc1c(/C=C/c2ccccc2S(C)(=O)=O)cc(-c2ccc[nH]c2=O)cc1C(C)(C)C [I-244, 3-{3-tert-Butyl-5-[(E)-2-(2-methanesulfonyl-phenyl)-vinyl]-4-methoxy-phenyl}-1H-pyridin-2-one]	1
COc1c(/C=C/c2ccc(NS(=O)(=O)CCCN3CCCC3)cc2)cc(-c2ccc[nH]c2=O)cc1C(C)(C)C [I-234, 3-Pyrrolidin-1-yl-propane-1-sulfonic acid (4-{(E)-2-[3-tert-butyl-2-methoxy-5-(2-oxo-1,2-dihydro-pyridin-3-yl)-phenyl]-vinyl}-phenyl)-amide]	4
COCc1cc(NS(C)(=O)=O)ccc1/C=C/c1cc(-c2ccc(C)[nH]c2=O)cc(C(C)(C)C)c1OC [I-208, N-(4-{(E)-2-[3-tert-Butyl-2-methoxy-5-(6-methyl-2-oxo-1,2-dihydro-pyridin-3-yl)-phenyl]-vinyl}-3-methoxymethyl-phenyl)-methanesulfonamide]	1
COc1c(/C=C/c2ccc(NS(C)(=O)=O)cc2CN(C)C)cc(-c2cc(F)c[nH]c2=O)cc1C(C)(C)C [I-221, N-(4-{(E)-2-[3-tert-Butyl-5-(5-fluoro-2-oxo-1,2-dihydro-pyridin-3-yl)-2-methoxy-phenyl]-vinyl}-3-dimethylaminomethyl-phenyl)-methanesulfonamide]	11
COc1c(/C=C/c2ccc(NS(C)(=O)=O)cc2F)cc(-c2cc(F)c[nH]c2=O)cc1C(C)(C)C [I-236, N-(4-{(E)-2-[3-tert-Butyl-5-(5-fluoro-2-oxo-1,2-dihydro-pyridin-3-yl)-2-methoxy-phenyl]-vinyl}-3-fluoro-phenyl)-methanesulfonamide]	1
COc1c(/C=C/c2ccc(NS(C)(=O)=O)cn2)cc(-c2ccc[nH]c2=O)cc1C1(C(F)F)CC1 [I-258, N-(6-{(E)-2-[3-(1-Difluoromethyl-cyclopropyl)-2-methoxy-5-(2-oxo-1,2-dihydro-pyridin-3-yl)-phenyl]-vinyl}-pyridin-3-yl)-methanesulfonamide]	1

same assay, conditions: IC50 HCV NS5B RNA Polymerase Assay, values without asterisk; 20 nM NS5B570n-Con1 enzyme, 20 nM cIRES RNA template

Compound	IC50 [nM]
COc1c(C(=O)Nc2ccc(OCC(N)=O)cc2)cc(-c2ccc[nH]c2=O)cc1C(C)(C)C [I-113, 3-tert-Butyl-N-(4-carbamoylmethoxy-phenyl)-2-methoxy-5-(2-oxo-1,2-dihydro-pyridin-3-yl)-benzamide]	133
COc1c(C(=O)Nc2ccc(N(C)C)cc2)cc(-c2ccc[nH]c2=O)cc1C(C)(C)C [I-41]	1510
COc1c(/C=C/c2ccc(NS(=O)(=O)CC(F)(F)F)cc2)cc(-c2cc(F)c[nH]c2=O)cc1C(C)(C)C [I-152]	16
COc1c(C(=O)Nc2cccc(CO)c2C)cc(-c2ccc[nH]c2=O)cc1C(C)(C)C [I-78]	1130
CCc1ccc(-c2cc(C(C)(C)C)ccc2OC)c(=O)[nH]1 [I-105, 3-(5-tert-Butyl-2-methoxy-phenyl)-6-ethyl-1H-pyridin-2-one]	6350
COc1c(CCc2ccc(NS(C)(=O)=O)cc2)cc(-c2cc(Cl)c[nH]c2=O)cc1C(C)(C)C [I-95, N-(4-{2-[3-tert-Butyl-5-(5-chloro-2-oxo-1,2-dihydro-pyridin-3-yl)-2-methoxy-phenyl]-ethyl}-phenyl)-methanesulfonamide]	17
COC(=O)c1cc(NS(C)(=O)=O)ccc1/C=C/c1cc(-c2ccc[nH]c2=O)cc(C(C)(C)C)c1 [I-158]	19
COc1c(C(=O)NCCCN2CCCC2=O)cc(-c2ccc[nH]c2=O)cc1C(C)(C)C [I-44]	1200
COCCCS(=O)(=O)Nc1ccc(/C=C/c2cc(-c3cc(F)c[nH]c3=O)cc(C(C)(C)C)c2OC)cc1 [I-156]	6
COc1c(CC(C#N)c2ccc(NS(C)(=O)=O)cc2)cc(-c2ccc[nH]c2=O)cc1C(C)(C)C (stereo not drawn) [I-177, N-(4-{2-[3-tert-Butyl-2-methoxy-5-(2-oxo-1,2-dihydro-pyridin-3-yl)-phenyl]-1-cyano-ethyl}-phenyl)-methanesulfonamide]	8
COc1c(NC(=O)c2ccc(N)nc2)cc(-c2ccc[nH]c2=O)cc1C(C)(C)C [I-247, 6-Amino-N-[3-tert-butyl-2-methoxy-5-(2-oxo-1,2-dihydro-pyridin-3-yl)-phenyl]-nicotinamide]	22
COc1c(NC(=O)c2ccc(NS(C)(=O)=O)cc2)cc(-c2ccc(C)[nH]c2=O)cc1C(C)(C)C [I-286]	19
COc1c(C(=O)NCc2ccccc2)cc(-c2ccc[nH]c2=O)cc1C(C)(C)C [I-37]	1010
COc1c(NC(=O)c2ccc(N)cc2C(F)(F)F)cc(-c2ccc[nH]c2=O)cc1C(C)(C)C [I-279]	104
COc1c(/C=C(\CO)c2ccc(NS(C)(=O)=O)cc2)cc(-c2ccc[nH]c2=O)cc1C(C)(C)C [I-149, N-(4-{(Z)-2-[3-tert-Butyl-2-methoxy-5-(2-oxo-1,2-dihydro-pyridin-3-yl)-phenyl]-1-hydroxymethyl-vinyl}-phenyl)-methanesulfonamide]	26
COCCOc1cc(NS(C)(=O)=O)ccc1C(=O)Nc1cc(-c2ccc[nH]c2=O)cc(C(C)(C)C)c1OC [I-276, N-[3-tert-Butyl-2-methoxy-5-(2-oxo-1,2-dihydro-pyridin-3-yl)-phenyl]-4-methanesulfonylamino-2-(2-methoxy-ethoxy)-benzamide]	20
CC(C)(C)c1cc(C#Cc2ccc(NS(C)(=O)=O)cc2F)c(O)c(-c2ccc[nH]c2=O)c1 [I-217, N-{4-[5-tert-Butyl-2-hydroxy-3-(2-oxo-1,2-dihydro-pyridin-3-yl)-phenylethynyl]-3-fluoro-phenyl}-methanesulfonamide]	69
CCOc1nc(-c2cc(-c3ccc[nH]c3=O)cc(C(C)(C)C)c2OC)cc2ccc(NS(C)(=O)=O)cc12 [II-9, N-{3-[3-tert-Butyl-2-methoxy-5-(2-oxo-1,2-dihydro-pyridin-3-yl)-phenyl]-1-ethoxy-isoquinolin-7-yl}-methanesulfonamide]	3
COc1c(NC(=O)c2ccc(O)cc2F)cc(-c2ccc[nH]c2=O)cc1C(C)(C)C [I-252, N-[3-tert-Butyl-2-methoxy-5-(2-oxo-1,2-dihydro-pyridin-3-yl)-phenyl]-2-fluoro-4-hydroxy-benzamide]	38
CC(C)(C)c1cc(CCc2ccc(NS(C)(=O)=O)cc2C#N)c(O)c(-c2ccc[nH]c2=O)c1 [I-216, N-(4-{2-[5-tert-Butyl-2-hydroxy-3-(2-oxo-1,2-dihydro-pyridin-3-yl)-phenyl]ethyl}-3-cyano-phenyl)-methanesulfonamide]	5

same assay, conditions: read-out: IC50 HCV NS5B RNA Polymerase Assay; values without asterisk; 20 nM NS5B570n-Con1 enzyme, 20 nM cIRES RNA template

Compound	IC50 [nM]
COc1c(/C=C/c2ccc(NS(C)(=O)=O)nn2)cc(-c2ccc[nH]c2=O)cc1C(C)(C)C [I-182]	9

same assay, conditions: values without asterisk; 20 nM NS5B570n-Con1 enzyme, 20 nM cIRES RNA template; read-out: IC50 HCV NS5B RNA Polymerase Assay

Compound	IC50 [nM]
O=C(O)c1ccc([N+](=O)[O-])cn1 [I-136]	5
